Test results as given in US20040029208A1, “Assay method and kit for testing biological material for exposure to stress using biomarkers” (priority 2000, published 2004).

Experiments:
Lólium perénne = assay: TLC plant biomarker pattern after herbicide spraying (greenhouse); assay type: in vivo; details: Roundup Bio; Lólium perénne
Method: (§1) The experiments were performed in the green-house at the National Environmental Research Institute, Silkeborg, Denmark. All the seeds needed light to germinate, and were sown at the soil surface in individual 11 cm pots. The soil used during the experiments contained: (SM Growing Mould (Growing medium by special soil (sphagnum) added clay granulate), 0-30 mm; grade of turnover 55-75; added per m^3: 3 kg lime (white chalk), 1.5 kg dolit chalk, 40 kg clay granulate; Fertilizer added granulate: NO3-N: 55.0 g; NH4-N: 65.0 g; P: 106.6 g; K: 224.0 g; Mg: 22 g; Micro nutrients added in chelate form, Mo in uorganic form: B-Boron: 1 g; Cu-copper: 6 g; Mn-Manganese: 3 g; Zinc-Zn: 3 g: Fe-iron: 6 g; Mo- molybdenum: 1.4 g).
(§2) During the experiments plants were watered from below, and the temperature in the green-house was maintained between 15° C. and 25° C. with variations due to external weather, and the photoperiod was 16th daylight. The green-house is divided into different units, which allowed for the separate maintenance of the control plants from the sprayed plants to avoid undesirable effects due to vapour drift.
(§3) Glyphosate (Roundup Bio (360 g L^−1) was supplied by Monsanto Denmark A/S. Recommended field dose=1,44 kg a.i. ha^−1. In all the experiments, an automatic sprayer (designed in Denmark by Jens Kristensen 1994) was used where the herbicide application is achieved by moving boom equipment with two ordinary hydraulic flat fan nozzles (Hardi 4110-16). Two pots per spray event were placed in the middle of the spray chamber at 50 cm distance from the nozzle, delivering 200 L of water per-hectare with a desired herbicide concentration (working pressure 2 bars; speed of spray boom=4.7 km h^−1). The spraying was performed starting with the lowest concentration first, progressing towards the highest concentration. Between each herbicide, the sprayer was thoroughly rinsed several times with water. The control plants were sprayed with water.
(§4) The fresh plant material was pressed using a hand press. The extract was immediately centrifuged. (3000 rpm) for 10 minutes. The supernatant was used for analysis. The extracts were kept cool or right above 0° C. during the test to avoid decomposition of biomarkers.
(§5) Freeze-dried plant material was crushed and 250 mg was extracted with 5.00 ml 75% ethanol in an ultrasonic bath for 2 hours. The temperature was kept <0° C. (using ice) during the extraction to avoid decomposition of biomarkers. The extract was centrifuged (3000 rpm) for 10 minutes. The supematant was used for analysis and were kept cool during the test to avoid decomposition of biomarkers.
(§6) The two extracts (freshtfresh ethanol) were applicated immediately on a TLC plate (10 μl on both TLC-Plate types (see below) using cool air-drying. The 75% ethanolic extract was applicated 10 μl on Silica-gel TLC-plates and 5 μl on Cellulose TLC-plates (see below). The fresh/fresh ethanolic extractsare recommended to perform if fresh plant material are to be analysed (field-test). The freeze-dried or frozen plant material extraction Is recommended if the analysis are performed in the laboratory.
(§7) TLC-System 1: HPTLC-Alufolie Silica Gel 60 F254, Merck 1.05548 (10×10 cm); 10 μl plant extracts plants exposed to glyphosate and control plants; eluted in n-butanol acetic acid: water (4:1:5) (upper phase after 5 minutes shaking). Derivatisation: Stock solution 1:50% sulfuric acid in 96% ethanol; Stock solution 2: 2% vanillin in absolut alcohol; Derivatisation-solvent, Fresh produced before us, stock solution 1 and stock solution 2 (1:10); Aftercare: 120° C. in 2-3 min. The plate is valuated visually. The system detects higher alcoholics, phenolic compounds, steroids and etheric oils (Stahl 1969), terpenoids, phenyl propanolds, phenolic compounds (Wagner etea. 1984) […]

Plantágo lanceoláta = assay: as above; assay type: in vivo
Method: as §1, §2, §3, §4, §5, §6, §7

all tested plants = assay: Most frequent TLC biomarker pattern of all tested plants; assay type: in vivo; details: stability experiments
Text: By th term “standard biomarker pattern” is m ant a patternd of the composition of compounds present in a plant after exposure to known stress factors. According to th invention th biomarker pattern of the unknown compounds, i.e. the above described biomarker pattern, is correlated to a standard biomarker pattern, also referred to as a “most frequent pattern”. In order to interpret the biomarker patterns of test material that has been exposed to unknown stress factors, it is a prerequisite to provide standard biomarker patterns, i.e. most frequent patterns. By the latter is meant the same type of biomarker pattern obtained after exposure to a stress factor in more than 50% of the cases of exposure, such as 60%, for example 70%, such as 80%, for example 90%. The biomarker patterns of test material that has been exposed to unknown stress factors may then be correlated to standard biomarker patterns. The standard biomarker pattern may be obtained for one particular stress factor or for a combination of at least two different stress factors.
The study was performed in greenhouse between August and December 1998 for all species. Degree days (=(Present temperature in ° C.-5° C.)×amount of days) were used as time scale. […] Before the harvest, the plants were evaluated for visual effects using the rating chart described in Table 1 (Hamit et al., 1977). […]

white birch seedlings = details: within 24h of application, even at 1% of field rate; cited from earlier work

SMILES: O=C(O)CNCP(=O)(O)O [Glyphosate]
- LC: lowest dose of concentration of the herbicide with phytochemical changes in all the TLC-Systems (Lólium perénne): 1% of field dose
- LC: lowest dose of concentration of the herbicide with phytochemical changes in all the TLC-Systems (Plantágo lanceoláta; Roundup Bio, Plantágo lanceoláta): 1% of field dose
- Min. of label dose of herbicide with effect (Plantágo lanceoláta; TLC 1 (non-specific compounds)): 1%
- Min. of label dose of herbicide with effect (Plantágo lanceoláta; TLC 2 (phenolic compounds)): 1%
- Min. of label dose of herbicide with effect (Plantágo lanceoláta; TLC 6 (lipids and terpens)): 1%
- Min. of label dose of herbicide with effect (Plantágo lanceoláta; TLC 7 (non-specific compounds)): 1%
- Min. of label dose of herbicide with effect (Plantágo lanceoláta; TLC 4d (amino acids)): 1%
- time after exposure at which phytochemical changes were seen (all tested plants; 60 degree days): 4 days
- time after exposure up to which a phytochemical pattern was present (all tested plants; 480 degree days): up to 32 days
- increase of shikimic acid levels (white birch seedlings): 10 fold
